From paper PMC9728284, “Inhibition of Herpes Simplex Viruses, Types 1 and 2, by Ginsenoside 20(S)-Rg3” (Journal of Microbiology and Biotechnology, 2019)
Several values for one entry are separate records, joined by “and”; a condition that tells them apart may be missing. Identical values can stand only once.

Legend:
HSV-1 [1] = experiment: HSV-1 inhibition in Vero cells (PrestoBlue, compound and virus added simultaneously); type: cell-based, Herpes simplex virus type 1 (MacIntyre strain); settings: for IC50: Human alphaherpesvirus 1, two-fold dilutions, linear regression, Vero cells, read-out: IC50 against HSV-1
Procedure: (§1) Herpes simplex virus type 1 (HSV-1, MacIntyre strain, ATCC, VR-539) or herpes simplex virus type 2 (HSV-2, ATCC, VR-734) were used in these studies. Virus titer was determined by plaque assay. Briefly, following 2 h adsorption of various virus dilutions onto a Vero cell monolayer in a 24-well plate, the medium was removed and cells were overlaid with 1.5% carboxymethylcellulose (Sigma) and incubated 48 h at 37°C with 5% CO2. After incubation, cells were fixed with methanol, stained with Giemsa (Sigma) and plaques were counted. Each virus dilution was prepared in quadruplicate.
(§2) All ginsenosides, isomers, and protopanaxadiols were evaluated for toxic effects on Vero cells prior to anti-viral testing. Cells were seeded at 5,000 cells/well in a black 96-well plate with clear bottom in a volume of 100 µl and allowed to attach for 24 h. The P. ginseng compounds were prepared in DMSO at 100 µM and were taken through serial two-fold dilutions to determine the concentration when the rate of cell death was less than 10%compared to control, untreated cells. Each dilution was tested in three wells and all assays were repeated three times. Following 48 h incubation at 37°C in 5% CO2, 11 µl of PrestoBlue (Invitrogen) was added to each well and the plate was incubated for an additional 30 min. PrestoBlue determines cell viability by changing from blue to red as resazurin is reduced to resorufin by viable cells. Following the PrestoBlue incubation, fluorescence was determined by spectrophotometric reading using Soft Max Pro (Molecular Diagnostics, USA).
(§3) For cytotoxicity testing, 4 µl of dilutions of the ginsenosides or protopanaxadiols were added to 396 µl of medium 199 and 100 µl of this mixture was added to each of three wells. For anti-viral testing, 4 µl of the non-toxic reagent and 4 µl of HSV-1 or HSV-2 diluted to an MOI of 0.1 were added to 392 µl of medium 199 and 100 µl of this was added to each of three wells. Virus inhibition was determined by comparing the cell death of reagent-exposed cells with cell death of control cells only receiving virus. The 50%inhibitory concentration (IC50) was determined through a series of two-fold dilutions and calculation by linear regression analysis.

PC12 cells = settings: cited from earlier work
HSV-2 = HSV-2 inhibition in Vero cells (PrestoBlue, compound and virus added simultaneously); type: cell-based, herpes simplex virus type 2; settings: for Percent Inhibition of HSV-2: ± standard error
Procedure: as §1, §2, §3

HSV-1 [2] = experiment: Time studies of HSV-1 inhibition (PrestoBlue); type: cell-based, Herpes simplex virus type 1 (MacIntyre strain); settings: for Percent Inhibition of HSV-1: 20(S)-Rg3 50 μM
Procedure: For virus inhibition studies described above, reagent 20(S)-Rg3 and virus were added to cells simultaneously. In an attempt to evaluate the potential mode of action of 20(S)-Rg3, various combinations of valacyclovir, 20(S)-Rg3 and HSV-1 were tested at different time periods. The following combinations were evaluated at both one hour and four hours:
• ● Virus applied to cells first (for one hour or four hours), followed by addition of valacyclovir, 20(S)-Rg3 or both valacyclovir and 20(S)-Rg3 to the cells • ● Valacyclovir or 20(S)-Rg3 or both valacyclovir and 20(S)-Rg3 applied to cells first (for one or four hours), followed by virus • ● Valacyclovir or 20(S)-Rg3 incubated together with virus first for one or four hours then added to cells
All procedures described for evaluation of virus inhibition were followed in identical fashion as outlined for the PrestoBlue procedure except valacyclovir was used at a constant concentration of 16 µM and 20(S)-Rg3 at 50 µM.

[3] = Cytotoxicity on Vero cells (PrestoBlue cell viability assay); type: cell-based; settings: African green monkey
Procedure: as §2, §3

Vero cells = experiment: as above; type: cell-based
Procedure: as §2, §3

[4] = as above; type: cell-based; settings: African green monkey, read-out: Percent Cell Viability; for viability at 48 h, 500 μM: 20(S)-Rg3 500 μM
HSV-1 [5] = experiment: Plaque reduction of HSV-1 on Vero cell monolayer; type: cell-based, Herpes simplex virus type 1 (MacIntyre strain); settings: valacyclovir 16 μM, 20(S)-Rg3 50 μM; for Number of Plaques: approximately 50 PFU/well, 48 h, ± standard error; for Percent Reduction (plaques of HSV-1): compared to control
Procedure: as §1
The plaque assay procedure also was used to evaluate the percent plaque reduction; the only procedural change was that a constant virus concentration was used (50 PFU/well). Plaque reduction was measured by comparing the control (virus only), with valacyclovir (16 µM) with virus or 20(S)-Rg3 (50 µM) with virus. Sample wells were evaluated in quadruplicate. Following the 2 h virus adsorption, the methylcellulose-medium containing the same concentrations of valacyclovir or 20(S)-Rg3 was added to the appropriate wells. After 48 h, plaques were fixed, stained and counted.

normal WI 38 cells = test system: normal WI 38 cells; set-up: method as in PMID 18365686; settings: 120 μM; cited from earlier work
[6] = test system: human carcinoma cells KB V20C; settings: cited from earlier work
[7] = set-up: method as in New Drug Application #20-487/S-007, GlaxoSmithKline; settings: ref New Drug Application #20-487/S-007, GlaxoSmithKline; cited from earlier work
[8] = each compound at its non-toxic concentration (Table 1 c1), MOI 0.1, value in parentheses = higher cell death than virus-alone control

Molecule: CC(C)=CCC[C@](C)(O[C@@H]1O[C@H](CO[C@@H]2OC[C@H](O)[C@H](O)[C@H]2O)[C@@H](O)[C@H](O)[C@H]1O)[C@H]1CC[C@]2(C)[C@@H]1[C@H](O)C[C@@H]1[C@@]3(C)CC[C@H](O[C@@H]4O[C@H](CO)[C@@H](O)[C@H](O)[C@H]4O[C@@H]4O[C@H](CO)[C@@H](O)[C@H](O)[C@H]4O)C(C)(C)[C@@H]3CC[C@]12C [Rb2]
- Percent Inhibition of HSV-1 (HSV-1 [1]; [8]): 26.4%

Molecule: CC(C)=CCC[C@](C)(O[C@@H]1O[C@H](CO)[C@@H](O)[C@H](O)[C@H]1O)[C@H]1CC[C@]2(C)[C@@H]1[C@H](O)C[C@@H]1[C@@]3(C)CC[C@H](O[C@@H]4O[C@H](CO)[C@@H](O)[C@H](O)[C@H]4O[C@@H]4O[C@H](CO)[C@@H](O)[C@H](O)[C@H]4O)C(C)(C)[C@@H]3CC[C@]12C [Rd]
- Percent Inhibition of HSV-1 (HSV-1 [1]; [8]): 36.1%

Molecule: CC(C)=CCC[C@@](C)(O)C1CC[C@]2(C)C1C(O)CC1C3(C)CCC(OC4OC(CO)C(O)C(O)C4OC4OC(CO)C(O)C(O)C4O)C(C)(C)C3CCC12C (stereo partly drawn) [20(R)-Rg3]
- Percent Inhibition of HSV-1 (HSV-1 [1]; [8]): 22.7%

Molecule: CC(C)=CCC[C@](C)(O)C1CC[C@]2(C)C1C(O)CC1C3(C)CCC(O)C(C)(C)C3CCC12C (stereo partly drawn) [20(S)-protopanaxadiol]
- concentration not toxic for PC12 cells (PC12 cells): 20 µM

Molecule: CC(C)=CCC[C@](C)(O)C1CC[C@]2(C)C1C(O)CC1C3(C)CCC(OC4OC(CO)C(O)C(O)C4OC4OC(CO)C(O)C(O)C4O)C(C)(C)C3CCC12C (stereo partly drawn) [20(S)-Rg3, Ginsenoside 20(S)-Rg3]
- Percent Inhibition of HSV-2 (HSV-2; 20(S)-Rg3 25 μM): 14.3 ± 3.3%
- Percent Inhibition of HSV-2 (HSV-2; 20(S)-Rg3 50 μM): 80% and 81.7 ± 10.3%
- Percent Inhibition of HSV-2 (HSV-2; 20(S)-Rg3 100 μM): 114.7 ± 6.7%
- IC50 (HSV-2; Human alphaherpesvirus 2, two-fold dilutions, linear regression, Vero cells, read-out: IC50 against HSV-2): ~35 µM
- Percent Inhibition of HSV-1 (HSV-1 [2]; cells treated with compound 4 h prior to HSV-1 addition): 90.1 ± 11.1%
- Percent Inhibition of HSV-1 (HSV-1 [2]; virus present on cells 4 h prior to compound addition): 50.7 ± 4.4%
- Percent Inhibition of HSV-1 (HSV-1 [1]; 20(S)-Rg3 25 μM, ± standard error): 11.0 ± 2.6%
- Percent Inhibition of HSV-1 (HSV-1 [1]; 20(S)-Rg3 50 μM, ± standard error): 80% and 82.3 ± 3.5%
- Percent Inhibition of HSV-1 (HSV-1 [1]; 20(S)-Rg3 100 μM, ± standard error): 90.3 ± 9.9%
- IC50 (HSV-1 [1]): ~35 µM
- Percent Inhibition of HSV-1 (HSV-1 [1]; [8]): 90.3%
- IC50 at 48 h [3]: ~400 µM
- viability at 48 h, 50 μM ([3]; 20(S)-Rg3 50 μM, parentheses = greater proliferation or metabolic activity than untreated cells, read-out: Percent Cell Viability): 113%
- viability at 48 h, 100 μM ([3]; 20(S)-Rg3 100 μM, parentheses = greater proliferation or metabolic activity than untreated cells, read-out: Percent Cell Viability): 114%
- selectivity (Vero cells; Vero cell toxicity IC50 versus antiviral IC50 (HSV-1 and HSV-2)): 11 fold
- viability at 48 h, 125 μM ([4]; 20(S)-Rg3 125 μM, parentheses = greater proliferation or metabolic activity than untreated cells): 122%
- viability at 48 h, 250 μM ([4]; 20(S)-Rg3 250 μM, parentheses = greater proliferation or metabolic activity than untreated cells): 129%
- viability at 48 h, 500 μM [4]: 17.7 ± 14.7%
- Number of Plaques (HSV-1 [5]): 1.5 ± 0.3
- Percent Reduction (plaques of HSV-1) (HSV-1 [5]): 97.3%

Molecule: CC(C)=CCC[C@](C)(O[C@@H]1O[C@H](CO[C@@H]2OC[C@@H](O)[C@H](O)[C@H]2O)[C@@H](O)[C@H](O)[C@H]1O)[C@H]1CC[C@]2(C)[C@@H]1[C@H](O)C[C@@H]1[C@@]3(C)CC[C@H](O[C@@H]4O[C@H](CO)[C@@H](O)[C@H](O)[C@H]4O[C@@H]4O[C@H](CO)[C@@H](O)[C@H](O)[C@H]4O)C(C)(C)[C@@H]3CC[C@]12C [Rb3]
- Percent Inhibition of HSV-1 (HSV-1 [1]; [8]): 30.9%

Molecule: CC(C)=CCC[C@@](C)(O)C1CC[C@]2(C)C1C(O)CC1C3(C)CCC(O)C(C)(C)C3CCC12C (stereo partly drawn) [20(R)-protopanaxadiol]
- Percent Inhibition of HSV-1 (HSV-1 [1]; [8]): 14.4%

Molecule: CC(C)=CCC[C@](C)(O[C@@H]1O[C@H](CO[C@@H]2O[C@@H](CO)[C@H](O)[C@H]2O)[C@@H](O)[C@H](O)[C@H]1O)[C@H]1CC[C@]2(C)[C@@H]1[C@H](O)C[C@@H]1[C@@]3(C)CC[C@H](O[C@@H]4O[C@H](CO)[C@@H](O)[C@H](O)[C@H]4O[C@@H]4O[C@H](CO)[C@@H](O)[C@H](O)[C@H]4O)C(C)(C)[C@@H]3CC[C@]12C [Rc]
- Percent Inhibition of HSV-1 (HSV-1 [1]; [8]): 28.6%

Molecule: CC(C)=CCCC(C)(O)C1CC[C@]2(C)C1C(O)CC1C3(C)CCC(OC4OC(CO)C(O)C(O)C4OC4OC(CO)C(O)C(O)C4O)C(C)(C)C3CCC12C (some centres unmarked) [Rg3, ginsenoside Rg3]
- effect on normal WI 38 cells (normal WI 38 cells): no effect
- viability at 48 h, 500 μM [4]: < 20%
- cytotoxic concentration [6]: 120 µM

Molecule: CC(C)=CCC[C@](C)(O[C@@H]1O[C@H](CO)[C@@H](O)[C@H](O)[C@H]1O)[C@H]1CC[C@]2(C)[C@@H]1[C@H](O)C[C@@H]1[C@@]3(C)CC[C@H](O)C(C)(C)[C@@H]3[C@@H](O[C@@H]3O[C@H](CO)[C@@H](O)[C@H](O)[C@H]3O[C@@H]3O[C@@H](C)[C@H](O)[C@@H](O)[C@H]3O)C[C@]12C [Re]
- Percent Inhibition of HSV-1 (HSV-1 [1]; [8]): 26.7%

Molecule: 20(S)-Rh2
- Percent Inhibition of HSV-1 (HSV-1 [1]; [8]): 46.2%

Molecule: CC(C)=CCC[C@](C)(O[C@@H]1O[C@H](CO)[C@@H](O)[C@H](O)[C@H]1O)[C@H]1CC[C@]2(C)[C@@H]1[C@H](O)C[C@@H]1[C@@]3(C)CC[C@H](O)C(C)(C)[C@@H]3[C@@H](O[C@@H]3O[C@H](CO)[C@@H](O)[C@H](O)[C@H]3O)C[C@]12C [Rg1]
- Percent Inhibition of HSV-1 (HSV-1 [1]; [8]): 13.2%

Molecule: CC(C)=CCC[C@](C)(O[C@@H]1O[C@H](CO[C@@H]2O[C@H](CO)[C@@H](O)[C@H](O)[C@H]2O)[C@@H](O)[C@H](O)[C@H]1O)[C@H]1CC[C@]2(C)[C@@H]1[C@H](O)C[C@@H]1[C@@]3(C)CC[C@H](O[C@@H]4O[C@H](CO)[C@@H](O)[C@H](O)[C@H]4O[C@@H]4O[C@H](CO)[C@@H](O)[C@H](O)[C@H]4O)C(C)(C)[C@@H]3CC[C@]12C [Rb1]
- Percent Inhibition of HSV-1 (HSV-1 [1]; [8]): 23% and 23.3%

Molecule: CC(C)[C@H](N)C(=O)OCCOCn1cnc2c(=O)[nH]c(N)nc21 [Valacyclovir, reference compound]
- reported IC50 ranges [7]: 0.02 to 13.5 µg/mL
- inhibition at 16 µM (HSV-1 [2]; Human alphaherpesvirus 1, HSV-1 incubated together with valacyclovir (16 μM) 0 to 4 h prior to addition to cells, read-out: percent inhibition of HSV-1): 52.3 to 54.7%
- IC50 (HSV-1 [1]): 13.2 µM
- viability at 48 h, 16 μM [3]: ~99%
- percent cell death (Vero cells; African green monkey, 48 h, 16 μM): 1.2 ± 0.4%
- Number of Plaques (HSV-1 [5]): 8.1 ± 1.1
- Percent Reduction (plaques of HSV-1) (HSV-1 [5]): 85.7%
